Measurements: patent US9708316B2 (BRISTOL-MYERS SQUIBB COMPANY, priority 2014, dated 2017)
pIC50: −log10 of the molar value. Where two headings read alike, the source gives them in different places.

Key:
[1] = biological target: T1, HIS-TGFβR1 T204D (Homo sapiens, UniProt P36897, T204D); assay: HTRF probe-displacement assay, HIS-TGFβR1 T204D; format: binding; details: for IC50: read-out: TGFβR1 (μM) IC50
T1 sequence (P36897 34-503 T204D): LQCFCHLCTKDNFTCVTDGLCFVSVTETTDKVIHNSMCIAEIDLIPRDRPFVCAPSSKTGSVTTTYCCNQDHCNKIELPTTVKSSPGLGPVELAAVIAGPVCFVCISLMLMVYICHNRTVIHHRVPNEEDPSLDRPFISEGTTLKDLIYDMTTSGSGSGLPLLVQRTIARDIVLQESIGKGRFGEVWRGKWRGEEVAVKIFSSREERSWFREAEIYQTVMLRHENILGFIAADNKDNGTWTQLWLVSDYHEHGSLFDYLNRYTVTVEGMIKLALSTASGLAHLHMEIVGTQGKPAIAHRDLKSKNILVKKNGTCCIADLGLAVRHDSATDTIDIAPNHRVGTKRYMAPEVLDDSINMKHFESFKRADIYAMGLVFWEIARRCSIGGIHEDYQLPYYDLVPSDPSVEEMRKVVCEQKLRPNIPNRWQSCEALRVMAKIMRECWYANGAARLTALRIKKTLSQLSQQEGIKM

[2] = biological target: HIS-TGFβR2 WT (Homo sapiens, UniProt P37173); assay: HTRF probe-displacement assay, HIS-TGFβR2 WT; format: binding
HIS-TGFβR2 WT, sequence (P37173 23-567): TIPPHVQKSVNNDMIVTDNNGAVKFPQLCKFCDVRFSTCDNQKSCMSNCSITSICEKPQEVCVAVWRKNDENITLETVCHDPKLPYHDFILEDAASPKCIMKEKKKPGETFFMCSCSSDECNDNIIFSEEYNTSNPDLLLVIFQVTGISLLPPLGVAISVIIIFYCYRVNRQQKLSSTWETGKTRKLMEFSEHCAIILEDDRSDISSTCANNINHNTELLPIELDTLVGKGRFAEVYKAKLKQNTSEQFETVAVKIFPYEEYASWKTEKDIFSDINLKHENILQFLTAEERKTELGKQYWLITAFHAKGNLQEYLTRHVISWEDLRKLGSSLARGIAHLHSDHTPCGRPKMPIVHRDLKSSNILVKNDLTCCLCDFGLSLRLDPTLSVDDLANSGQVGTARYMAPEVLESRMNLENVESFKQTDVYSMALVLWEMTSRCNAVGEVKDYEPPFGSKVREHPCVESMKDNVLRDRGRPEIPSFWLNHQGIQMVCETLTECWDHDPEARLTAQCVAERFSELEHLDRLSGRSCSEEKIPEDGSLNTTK

| SMILES | IC50 [1] | IC50 [2] | pIC50 [1] |
| --- | --- | --- | --- |
| COCC(C)Oc1cnc2c(-c3ccc(OC)cn3)c(-c3ccnc(NC(C)=O)c3)[nH]c2c1 (centres unmarked) [Example 97, N-(4-(6-((1-Methoxypropan-2-yl)oxy)-3-(5-methoxypyridin-2-yl)-1H-pyrrolo[3,2-b]pyridin-2-yl)pyridin-2-yl)acetamide] | 0.001 µM | > 15 µM | – |
| COc1ccc(-c2c(-c3ccnc(NC(C)=O)c3)[nH]c3cc(N4CCCC4)cnc23)nc1 [Example 167, N-(4-(3-(5-Methoxypyridin-2-yl)-6-(pyrrolidin-1-yl)-1H-pyrrolo[3,2-b]pyridin-2-yl)pyridin-2-yl)acetamide] | 0.0171 µM | > 15 µM | – |
| COc1ccc(-c2c(-c3ccnc(NC(C)=O)c3)[nH]c3cc(F)cnc23)nc1 [Example 39, N-{4-[6-Fluoro-3-(5-methoxypyridin-2-yl)-1H-pyrrolo[3,2-b]pyridin-2-yl]pyridin-2-yl}acetamide] | 0.002 µM | > 15 µM | – |
| CC(=O)Nc1cc(-c2[nH]c3cccnc3c2-c2ccc(C(F)F)cn2)ccn1 [Example 108, N-(4-(3-(5-(Difluoromethyl)pyridin-2-yl)-1H-pyrrolo[3,2-b]pyridin-2-yl)pyridin-2-yl)acetamide] | 0.145 µM | > 15 µM | – |
| CC(=O)Nc1cc(-c2[nH]c3cc(Cl)cnc3c2-c2ccc(Cl)cn2)ccn1 [Example 46, N-{4-[6-Chloro-3-(5-chloropyridin-2-yl)-1H-pyrrolo[3,2-b]pyridin-2-yl]pyridin-2-yl}acetamide] | 0.008 µM | > 15 µM | – |
| COc1cnc2c(-c3ccc(OC(F)F)cn3)c(-c3ccnc(NC(C)=O)c3)[nH]c2c1 [Example 113, N-(4-(3-(5-(Difluoromethoxy)pyridin-2-yl)-6-methoxy-1H-pyrrolo[3,2-b]pyridin-2-yl)pyridin-2-yl)acetamide] | 0.003 µM | 14.6 µM | – |
| COc1ccc(-c2c(-c3ccnc(NC(=O)CN4CCN(CCO)CC4)c3)[nH]c3cc(OC)cnc23)nc1 [Example 120, 2-[4-(2-Hydroxyethyl)piperazin-1-yl]-N-{4-[6-methoxy-3-(5-methoxypyridin-2-yl)-1H-pyrrolo[3,2-b]pyridin-2-yl]pyridin-2-yl}acetamide] | 0.001 µM | > 15 µM | – |
| [2H]C([2H])([2H])Oc1ccc(-c2c(-c3ccnc(NC(C)=O)c3)[nH]c3cc(OC)cnc23)nc1 [Example 112, N-(4-(6-Methoxy-3-(5-(methoxy-d3)pyridin-2-yl)-1H-pyrrolo[3,2-b]pyridin-2-yl)pyridin-2-yl)acetamide] | 0.001 µM | 8.75 µM | – |
| CC(=O)Nc1cc(-c2[nH]c3cc(Cl)cnc3c2-c2nc(C#N)cs2)ccn1 [Example 177, N-(4-(6-Chloro-3-(4-cyanothiazol-2-yl)-1H-pyrrolo[3,2-b]pyridin-2-yl)pyridin-2-yl)acetamide] | 0.0014 µM | > 15 µM | – |
| CC(=O)Nc1cc(-c2[nH]c3cccnc3c2-c2nccc(C)n2)ccn1 [Example 195, N-(4-(3-(4-Methylpyrimidin-2-yl)-1H-pyrrolo[3,2-b]pyridin-2-yl)pyridin-2-yl)acetamide] | 0.0048 µM | > 15 µM | – |
| COc1ccc(-c2c(-c3ccnc(NC(C)=O)c3)[nH]c3cc(N4CCC(CO)CC4)cnc23)nc1 [Example 161, N-(4-(6-(4-(Hydroxymethyl)piperidin-l-yl)-3-(5-methoxypyridin-2-yl)-1H-pyrrolo[3,2-b]pyridin-2-yl)pyridin-2-yl)acetamide] | 0.0126 µM | > 15 µM | – |
| CC(=O)Nc1cc(-c2[nH]c3cc(Cl)cnc3c2-c2cccc(C)n2)ccn1 [Example 66, N-{4-[6-Chloro-3-(6-methylpyridin-2-yl)-1H-pyrrolo[3,2-b]pyridin-2-yl]pyridin-2-yl}acetamide] | – | 3.72 µM | 8.70 |
| COc1cnc2c(-c3cccc(C(F)F)n3)c(-c3ccnc(NC(=O)CN(C)C)c3)[nH]c2c1 [Example 117, N-(4-{3-[6-(Difluoromethyl)pyridin-2-yl]-6-methoxy-1H-pyrrolo[3,2-b]pyridin-2-yl}pyridin-2-yl)-2-(dimethylamino)acetamide] | 0.003 µM | 11.3 µM | – |
| CNc1cc(-c2[nH]c3cc(Cl)cnc3c2-c2ccc(F)cn2)ccn1 [Example 82, 4-[6-Chloro-3-(5-fluoropyridin-2-yl)-1H-pyrrolo[3,2-b]pyridin-2-yl]-N-methylpyridin-2-amine] | 0.006 µM | 4.05 µM | – |
| COc1ccc(-c2c(-c3ccnc(NC(=O)CN4CCS(=O)(=O)CC4)c3)[nH]c3cc(OC)cnc23)nc1 [Example 118, 2-(1,1-Dioxidothiomorpholino)-N-{4-[6-methoxy-3-(5-methoxypyridin-2-yl)-1H-pyrrolo[3,2-b]pyridin-2-yl]pyridin-2-yl}acetamide] | 0.002 µM | > 15 µM | – |
| CCCNCc1cnc2c(-c3ccc(OC)cn3)c(-c3ccnc(NC(C)=O)c3)[nH]c2c1 [Example 294, N-(4-(3-(5-methoxypyridin-2-yl)-6-((propylamino)methyl)-1H-pyrrolo[3,2-b]pyridin-2-yl)pyridin-2-yl)acetamide] | 0.063 µM | > 15 µM | – |
| CC(=O)Nc1cc(-c2[nH]c3c(C4CCOCC4)ccnc3c2-c2cccc(C)n2)ccn1 [Example 136, N-{4-[3-(6-Methylpyridin-2-yl)-7-(oxan-4-yl)-1H-pyrrolo[3,2-b]pyridin-2-yl]pyridin-2-yl}acetamide] | 0.006 µM | > 15 µM | – |
| COc1ccc(-c2c(-c3ccnc(N)c3)[nH]c3cc(Cl)cnc23)nc1 [Example 86, 4-[6-Chloro-3-(5-methoxypyridin-2-yl)-1H-pyrrolo[3,2-b]pyridin-2-yl]pyridin-2-amine] | 0.008 µM | > 15 µM | – |
| CC(=O)Nc1cc(-c2c(-c3cccc(C(F)F)n3)c3ncccc3n2CC(N)=O)ccn1 [Example 114, 2-(2-(2-Acetamidopyridin-4-yl)-3-(6-(difluoromethyl)pyridin-2-yl)-1H-pyrrolo[3,2-b]pyridin-1-yl)acetamide] | 0.55 µM | > 15 µM | – |
| CCc1ccnc(-c2c(-c3ccnc(NC(C)=O)c3)[nH]c3cccnc23)c1 [Example 29, N-{4-[3-(4-Ethylpyridin-2-yl)-1H-pyrrolo[3,2-b]pyridin-2-yl]pyridin-2-yl}acetamide] | 0.017 µM | > 15 µM | – |

Molecules with a lower IC50 [2], results first:

| IC50 [1] | IC50 [2] | pIC50 [1] | SMILES |
| --- | --- | --- | --- |
| 0.0041 µM | 1.55 µM | – | CC(=O)Nc1cc(-c2[nH]c3cc(F)cnc3c2-c2nc(C#N)cs2)ccn1 [Example 226, N-(4-(3-(4-Cyanothiazol-2-yl)-6-fluoro-1H-pyrrolo[3,2-b]pyridin-2-yl)pyridin-2-yl)acetamide] |
| 0.002 µM | 0.13 µM | – | CC(=O)Nc1cc(-c2[nH]c3cc(Cl)cnc3c2-c2cccc(Cl)n2)ccn1 [Example 41, N-{4-[3-(6-Chloropyridin-2-yl)-6-chloro-1H-pyrrolo[3,2-b]pyridin-2-yl]pyridin-2-yl}acetamide] |
| 0.002 µM | 0.13 µM | – | CC(=O)Nc1cc(-c2[nH]c3ccc(F)nc3c2-c2cccc(Cl)n2)ccn1 [Example 34, N-{4-[3-(6-Chloropyridin-2-yl)-5-fluoro-1H-pyrrolo[3,2-b]pyridin-2-yl]pyridin-2-yl}acetamide] |
| 0.15 µM | 1.35 µM | – | COc1ccc(-c2c(-c3ccnc(NC(C)=O)c3)[nH]c3cc(C)cnc23)cn1 [Example 173, N-(4-(3-(6-Methoxypyridin-3-yl)-6-methyl-1H-pyrrolo[3,2-b]pyridin-2-yl)pyridin-2-yl)acetamide] |
| 0.001 µM | 1.85 µM | – | COc1cnc2c(-c3cccc(C(F)F)n3)c(-c3ccnc(NC(C)=O)c3)[nH]c2c1 [Example 282, N-(4-(3-(6-(Difluoromethyl)pyridin-2-yl)-6-methoxy-1H-pyrrolo[3,2-b]pyridin-2-yl)pyridin-2-yl)acetamide] |
| 0.001 µM | 0.279 µM | – | CC(=O)Nc1cc(-c2[nH]c3c(C(C)O)ccnc3c2-c2cccc(Cl)n2)ccn1 (centres unmarked) [Example 263, N-(4-(3-(6-Chloropyridin-2-yl)-7-(1-hydroxyethyl)-1H-pyrrolo[3,2-b]pyridin-2-yl)pyridin-2-yl)acetamide] |
| 0.0006 µM | 0.044 µM | – | COc1cnc2c(-c3nc(C)cs3)c(-c3ccnc(NC(C)=O)c3)[nH]c2c1 [Example 208, N-(4-(6-Methoxy-3-(4-methylthiazol-2-yl)-1H-pyrrolo[3,2-b]pyridin-2-yl)pyridin-2-yl)acetamide] |
| 0.0275 µM | 1.53 µM | – | COc1nc(-c2c(-c3ccnc(NC(C)=O)c3)[nH]c3cccnc23)cs1 [Example 201, N-(4-(3-(2-Methoxythiazol-4-yl)-1H-pyrrolo[3,2-b]pyridin-2-yl)pyridin-2-yl)acetamide] |
| 0.0007 µM | 0.057 µM | – | CC(=O)Nc1cc(-c2[nH]c3cc(F)cnc3c2-c2nc(C)cs2)ccn1 [Example 225, N-(4-(6-Fluoro-3-(4-methylthiazol-2-yl)-1H-pyrrolo[3,2-b]pyridin-2-yl)pyridin-2-yl)acetamide] |
| 0.0015 µM | 0.129 µM | – | CC(=O)Nc1cc(-c2[nH]c3c(C(F)F)ccnc3c2-c2nc(C)cs2)ccn1 [Example 222, N-(4-(7-(Difluoromethyl)-3-(4-methylthiazol-2-yl)-1H-pyrrolo[3,2-b]pyridin-2-yl)pyridin-2-yl)acetamide] |
| 0.001 µM | 0.089 µM | – | CC(=O)Nc1cc(-c2[nH]c3cccnc3c2-c2cccc(Cl)n2)ccn1 [Example 3, N-{4-[3-(6-Chloropyridin-2-yl)-1H-pyrrolo[3,2-b]pyridin-2-yl]pyridin-2-yl}acetamide] |
